Measurements as given in paper PMC8234864, “Early Effects of the Soluble Amyloid β25-35 Peptide in Rat Cortical Neurons: Modulation of Signal Transduction Mediated by Adenosine and Group I Metabotropic Glutamate Receptors” (International Journal of Molecular Sciences, 2021).
Where no end group is shown, it is not given here.

Tests used:
Format in all cases: cell-based, rat
[1] = tested on: Caspase 3 (Casp3) gene expression; experiment: Caspase 3 gene expression by real-time RT-PCR; conditions: 25 µM
Experimental: (§1) Total RNA was extracted using an ABI 6100 Nucleic Acid PrepStation according to the manufacturer’s protocol (Applied Biosystems Inc., Foster City, CA, USA). Total RNA from cells was isolated and stored at −80 °C. The quality of isolated RNA was estimated by the ratio A260/A280 and was in the range of 1.9–2.1. RNA integrity was evaluated by agarose gel electrophoresis according to MIQE guidelines using the “bleach gel” method. RNA concentrations were determined from the A260. One microgram of total RNA was reverse transcribed using Applied Biosystems High-Capacity cDNA Archive Kit.
(§2) To assess relative gene expression in neurons, quantitative real-time RT-PCR analysis was performed with an Applied Biosystems Prism 7500 Fast Sequence Detection System using TaqMan® universal PCR master mix according to the manufacturer’s specifications. […] Levels of RNA expression were determined using the 7500 Fast System SDS software version 1.3.1 (Applied Biosystems) according to the 2^−ΔΔCt method. […] The results from three independent repeat assays, performed in different plates each using different cDNA’s from the cultures analyzed, were averaged to produce a single mean quantity value for each mRNA.

[2] = tested on: mGluR1 (GRM1) gene expression; experiment: mGluR1 gene expression by real-time PCR; conditions: 25 µM, 24 or 48 h, vs control neurons
Experimental: as §1, §2

[3] = tested on: mGluR1; experiment: Extracellular immunostaining of mGluR1 in non-permeabilized neurons; conditions: 25 µM, 24 h, whole-cell immunostaining
Experimental: (§3) The quantitative analysis of the levels of Group I mGluR and mGluR2,3 at the plasma membrane was performed with extracellular targeted polyclonal antibodies (mGluR1, mGluR5 and mGluR2,3, Alomone Labs, Jerusalem, Israel), as previously described with minor modifications. Briefly, after 2 weeks in culture, the culture medium was removed and cells washed with Locke Buffer (LB, pH 7.4). Cells were then fixed with 4% paraformaldehyde for 10 min at room temperature and washed with three 10-min intervals with LB.
(§4) Nonspecific staining was suppressed by blocking with 3% normal goat serum in LB for 60 min. […]
(§5) To evaluate the degree of fluorescence intensity in cortical neurons, fluorescence was measured to estimate the protein expression in the different experimental conditions analyzed. Images (448.6 µm × 335.08 µm) obtained with a digital camera (Leica DFC350FX R2), attached to a Leica DMI6000B (Leica Microsystems, Wetzlar, Germany) fluorescent microscope, were used for quantification (20x HCX PL FLUOTAR 0.4 dry objective). […] Fluorescence intensity was estimated by averaging mean grey values. […] Data were normalized to the total number of cells in the analyzed fields. The mean fluorescence background, calculated in the unstained regions between neurons, was subtracted from the fluorescence intensity of each data point. […]

[4] = tested on: mGluR2,3; experiment: Extracellular immunostaining of mGluR2,3 in non-permeabilized neurons; conditions: 25 µM, 24 h
Experimental: as §3, §4, §5

[5] = tested on: PLCβ1; experiment: PLCβ1 immunocytochemistry in permeabilized neurons; conditions: 25 µM, 24 h
Experimental: For PLCβ1 immunostaining, the protocol described above was followed with the introduction of modified steps. Before the nonspecific staining blockade with 3% normal goat serum, cells were pre-treated with Triton 0.25% in LB for 10 min to induce membrane permeabilization. Cells were incubated overnight in blocking buffer with mouse anti-PLCβ1 monoclonal antibody (1:500) from Millipore (Bedford, MA, USA). The following day, after three LB washes (10 min each), cortical neurons were exposed to Cy3-conjugated goat anti-mouse IgG (1:600). In all immunochemical procedures, internal controls were carried out where primary antibodies were not added to the blocking buffer.
as §5

GSNKGAIIGLM [Aβ25-35] was tested, and the “caspase 3 gene expression” value ([1]; 24 h) was “significant increase”, the “caspase 3 gene expression” value ([1]; 48 h) was “significant increase” and the mGluR1 gene expression [2] was “increase”. For the same sequence, the “mGluR1 density at the membrane level, increase over control value” [3] was “more than 7 fold”, the “mGluR2,3 density at the membrane surface of cell bodies” value [4] was “decrease” and the “total PLCβ1 protein decrease over control value” [5] was 40%.
